Like-named read-outs stand apart in the source and are kept apart here.
Experiments:
[1] = tested on: HCV GT1, 4, 5 and 6a/6b; parameters: method as in PMID 24107072, PMID 24126581; conditions: cited from earlier work
[2] = tested on: cytochrome P450 (CYP) 3A; conditions: cited from earlier work
[3] = tested on: P-glycoprotein; conditions: cited from earlier work
[4] = tested on: breast cancer resistance protein; conditions: cited from earlier work
[5] = tested on: organic anion transporting polypeptide (OATP) 1B1/3; conditions: cited from earlier work
[6] = tested on: HCV NS5A; conditions: all patients with virologic failure in Panel 4
[7] = cited from earlier work; for change in plasma concentrations on co-administration with JNJ-56914845: healthy volunteers, not considered clinically relevant
[8] = tested on: HCV NS5A; parameters: method as in PMID 24126581; conditions: L31M and Y93C (in combination with M28V), GT1a; cited from earlier work
[9] = tested on: HCV GT1, 3, 4, 5 and 6; parameters: method as in PMID 24144360; conditions: cited from earlier work
[10] = tested on: HCV replicon with NS5B NNI-1 pocket polymorphisms; assay: In vitro susceptibility of site-directed mutant replicons (baseline NS5B polymorphisms); assay type: cell-based, hepatitis C virus; conditions: NS5B polymorphisms observed at baseline (positions 37, 392, 424, 425, 494, 499) with site-directed mutagenesis data
Source text: NS5B polymorphisms were detected at baseline at the non-nucleoside inhibitor (NNI)-1 binding pocket positions 37, 392, 424, 425, 494 and/or 499 across all panels.

[11] = tested on: HCV NS5B; assay: Population-based sequencing at time of failure, NS5B region; parameters: species or system hepatitis C virus; conditions: patients with virologic failure
[12] = parameters: species or system human; conditions: in vivo
Protocol: Plasma pharmacokinetic samples for simeprevir, TMC647055, ritonavir and JNJ-56914845 were collected over 24 h (pre-dose, 1, 2, 3, 4, 5, 6, 8, 10, 12 and 24 h post-dose) at Week 4 from all patients and assayed using validated liquid chromatography-tandem mass spectrometry methods with lower limits of quantification for simeprevir, TMC647055, ritonavir and JNJ-56914845 of 5.0, 5.0, 2.0 and 1.0 ng/mL, respectively (data on file).
No formal sample size calculations were performed as this was a proof-of-concept study. For each efficacy endpoint, the proportion of patients was summarised descriptively together with a 95% confidence interval by treatment group and population. The change in log10 HCV RNA from baseline at all time points was calculated using descriptive statistics. Pharmacokinetic parameters were calculated using non-compartmental analysis (Phoenix WinNonlin® 6.2.1). All safety and tolerability data were summarised descriptively.

[13] = tested on: HCV NS3/4A; assay: Population-based sequencing at time of failure, NS3/4A region; parameters: species or system hepatitis C virus

For `COC(=O)N[C@H](C(=O)N1CCC[C@H]1c1ncc(-c2ccc(-c3ccc(-c4cnc([C@@H]5CC6(CN5C(=O)[C@@H](NC(=O)OC)C(C)C)OCCO6)[nH]4)cc3)cc2)[nH]1)C(C)C` [JNJ-56914845], the “in vitro antiviral activity” value [1] is given as “in vitro antiviral activity against HCV GT1, 4, 5 and 6a/6b”, the CYP3A substrate status [2] is given as “substrate” and the P-glycoprotein inhibition [3] is given as “inhibits”. For the same compound, the P-glycoprotein substrate status [3] was “substrate”, the “breast cancer resistance protein inhibition” value [4] was “inhibits” and the OATP1B1/3 inhibition ([5]; in vitro, ref data on file) was “inhibits”. For the same compound, the “emerging RAVs at time of failure” value [6] was “NS5A positions 30 and/or 31”, the “increase in exposure (AUC0–24h) on co-administration of simeprevir” value ([7]; human, in vivo) was 2.6 fold and the “baseline NS5A polymorphisms and in vitro resistance” value [8] was “associated with in vitro resistance”.
For `COc1ccc2c(c1)C=C1Cn3c-2c(C2CCCCC2)c2ccc(cc23)C(=O)NS(=O)(=O)N(C)CCOCCN(C)C1=O` [TMC647055], the “in vitro antiviral activity” value [9] is listed as “in vitro antiviral activity against HCV GT1, 3, 4, 5 and 6”, the “change in plasma concentrations on co-administration with JNJ-56914845” value [7] is listed as “small increases” and the “fold change in 50 % effective concentration compared to wild-type replicon” value [10] is listed as under 2. For the same compound, the “resistance-associated variants (RAVs) observed at failure” value [11] was “NS5B position 495 (mainly P495L)”, the “differences in pharmacokinetics based on ribavirin use” value (“differences in pharmacokinetics based” for short) [12] was “No differences” and the “increase in exposure with dose” value [12] was “more than dose-proportional increase”.
With `CC(C)c1nc(CN(C)C(=O)N[C@H](C(=O)N[C@@H](Cc2ccccc2)C[C@H](O)[C@H](Cc2ccccc2)NC(=O)OCc2cncs2)C(C)C)cs1` [ritonavir] the “differences in pharmacokinetics based” value [12] was “No differences”.
For `COc1ccc2c(O[C@@H]3C[C@H]4C(=O)N[C@]5(C(=O)NS(=O)(=O)C6CC6)C[C@H]5/C=C\CCCCN(C)C(=O)[C@@H]4C3)cc(-c3nc(C(C)C)cs3)nc2c1C` [simeprevir], the “CYP3A substrate / inhibitor status” value [2] is given as “substrate and mild inhibitor (intestinal only)”, the P-glycoprotein inhibition [3] is given as “inhibits” and the OATP1B1/3 inhibition [5] is given as “inhibits”. For the same compound, the “change in plasma concentrations on co-administration with JNJ-56914845” value [7] was “small increases”, the “emerging NS3 mutations at time of failure” value ([13]; GT1a-infected patients with virologic failure (R155K alone or with Q80R; R155S)) was “NS3 position 155” and the “emerging NS3 mutation at time of failure” value ([13]; most GT1b-infected patients with virologic failure) was “NS3 position 168”. For the same compound, the “differences in pharmacokinetics based” value [12] was “No differences” and the “exposure compared with historical data for simeprevir 150 mg once daily” value [12] was “within the range observed in historical data”.

— publication PMC5303260, “Efficacy, safety and pharmacokinetics of simeprevir and TMC647055/ritonavir with or without ribavirin and JNJ-56914845 in HCV genotype 1 infection” (BMC Gastroenterology, 2017)
